# Test results taken from patent publication US5358951A, “Angiotensin II receptor blocking 2, 3, 6 substituted quinazolinones” (American Cyanamid Company, priority 1993, dated 1994).
# Test system: vasopressor response of angiotensin II
# Test: AII Challenge: antagonism of angiotensin II vasopressor response
# Assay type: in vivo
# Conditions: for inhibition in vivo at 3 mg/kg / inhibition in vivo at 10 mg/kg: Rattus norvegicus, iv
# How it was run: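 Percent antagonism is based on the systolic blood pressure rise (mmHg) to i.v. angiotensin II at 0.05 and 0.1 ug/kg. Each rat's own predose response was taken as 100%. Challenges were repeated from 30 to 300 min after i.v., i.p. or oral compound in cannulated conscious male SHR, 16-20 weeks old.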
# [1] = 3 mg/kg I.V., AII 0.05 mcg/kg IV, 240 min post dose
# [2] = 3 mg/kg I.V., AII 0.05 mcg/kg IV, 300 min post dose
# [3] = 3 mg/kg I.V., AII 0.1 mcg/kg IV, 240 min post dose
# [4] = 3 mg/kg I.V., AII 0.1 mcg/kg IV, 300 min post dose
# [5] = 0.5 h, 3 mg/kg I.V., AII 0.05 mcg/kg IV, 30 min post dose
# [6] = 0.5 h, 3 mg/kg I.V., AII 0.1 mcg/kg IV, 30 min post dose
# [7] = 1 h, 3 mg/kg I.V., AII 0.05 mcg/kg IV, 60 min post dose
# [8] = 1 h, 3 mg/kg I.V., AII 0.1 mcg/kg IV, 60 min post dose
# [9] = 2 h, 3 mg/kg I.V., AII 0.05 mcg/kg IV, 120 min post dose
# [10] = 2 h, 3 mg/kg I.V., AII 0.1 mcg/kg IV, 120 min post dose
# [11] = 3 h, 3 mg/kg I.V., AII 0.1 mcg/kg IV, 180 min post dose
# [12] = 4 h, 3 mg/kg I.V., AII 0.05 mcg/kg IV, 240 min post dose
# [13] = 4 h, 3 mg/kg I.V., AII 0.1 mcg/kg IV, 240 min post dose
# [14] = 5 h, 3 mg/kg I.V., AII 0.05 mcg/kg IV, 300 min post dose
# [15] = 5 h, 3 mg/kg I.V., AII 0.1 mcg/kg IV, 300 min post dose
# [16] = […], 3 mg/kg I.V., AII 0.05 mcg/kg IV, 90 min post dose
smiles,measurement,setting,value
"CCCCc1nc2ccc([C@@H]3C[C@H]4CCCCN4O3)cc2c(=O)n1Cc1ccc(-c2ccccc2-c2nnn[nH]2)cc1 (relative stereo) [Example 60, (Cis)-2-Butyl-6-(hexahydro-2H-isoxazolo[2,3-a]pyridin-2-yl)-3-[[2'-(1H-tetrazol-5-yl)-[1,1'-biphenyl]-4-yl]methyl]-4(3H)-quinazolinone]",Response Average Change,[1],15 mmHg
same,Response Average Change,[2],15 mmHg
same,Response Average Change,[3],18.5 mmHg
same,Response Average Change,[4],30 mmHg
same,Response Average Change,"10 mg/kg I.V., AII 0.05 mcg/kg IV, 30 min post dose",0 mmHg
same,Response Average Change,"10 mg/kg I.V., AII 0.05 mcg/kg IV, 60 min post dose",7.5 mmHg
same,Response Average Change,"10 mg/kg I.V., AII 0.05 mcg/kg IV, 90 min post dose",14 mmHg
same,Response Average Change,"10 mg/kg I.V., AII 0.05 mcg/kg IV, 120 min post dose",9.5 mmHg
same,Response Average Change,"10 mg/kg I.V., AII 0.05 mcg/kg IV, 180 min post dose",12.5 mmHg
same,Response Average Change,"10 mg/kg I.V., AII 0.05 mcg/kg IV, 240 min post dose",17 mmHg
same,Response Average Change,"10 mg/kg I.V., AII 0.05 mcg/kg IV, 300 min post dose",12.5 mmHg
same,Response Average Change,"10 mg/kg I.V., AII 0.1 mcg/kg IV, 30 min post dose",0 mmHg
same,Response Average Change,"10 mg/kg I.V., AII 0.1 mcg/kg IV, 60 min post dose",7.5 mmHg
same,Response Average Change,"10 mg/kg I.V., AII 0.1 mcg/kg IV, 90 min post dose",15 mmHg
same,Response Average Change,"10 mg/kg I.V., AII 0.1 mcg/kg IV, 120 min post dose",12.5 mmHg
same,Response Average Change,"10 mg/kg I.V., AII 0.1 mcg/kg IV, 180 min post dose",21.5 mmHg
same,Response Average Change,"10 mg/kg I.V., AII 0.1 mcg/kg IV, 240 min post dose",12.5 mmHg
same,Response Average Change,"10 mg/kg I.V., AII 0.1 mcg/kg IV, 300 min post dose",22.5 mmHg
same,inhibition in vivo at 3 mg/kg,[5],80%
same,inhibition in vivo at 3 mg/kg,[6],69%
same,inhibition in vivo at 10 mg/kg,"0.5 h, 10 mg/kg I.V., AII 0.05 mcg/kg IV, 30 min post dose",100%
same,inhibition in vivo at 10 mg/kg,"0.5 h, 10 mg/kg I.V., AII 0.1 mcg/kg IV, 30 min post dose",100%
same,inhibition in vivo at 3 mg/kg,[7],73%
same,inhibition in vivo at 3 mg/kg,[8],79%
same,inhibition in vivo at 10 mg/kg,"1 h, 10 mg/kg I.V., AII 0.05 mcg/kg IV, 60 min post dose",82%
same,inhibition in vivo at 10 mg/kg,"1 h, 10 mg/kg I.V., AII 0.1 mcg/kg IV, 60 min post dose",85%
same,inhibition in vivo at 3 mg/kg,[9],73%
same,inhibition in vivo at 3 mg/kg,[10],56%
same,inhibition in vivo at 10 mg/kg,"2 h, 10 mg/kg I.V., AII 0.05 mcg/kg IV, 120 min post dose",77%
same,inhibition in vivo at 10 mg/kg,"2 h, 10 mg/kg I.V., AII 0.1 mcg/kg IV, 120 min post dose",74%
same,inhibition in vivo at 3 mg/kg,[11],44%
same,inhibition in vivo at 10 mg/kg,"3 h, 10 mg/kg I.V., AII 0.05 mcg/kg IV, 180 min post dose",70%
same,inhibition in vivo at 10 mg/kg,"3 h, 10 mg/kg I.V., AII 0.1 mcg/kg IV, 180 min post dose",56%
same,inhibition in vivo at 3 mg/kg,[12],59%
same,inhibition in vivo at 3 mg/kg,[13],49%
same,inhibition in vivo at 10 mg/kg,"4 h, 10 mg/kg I.V., AII 0.05 mcg/kg IV, 240 min post dose",59%
same,inhibition in vivo at 10 mg/kg,"4 h, 10 mg/kg I.V., AII 0.1 mcg/kg IV, 240 min post dose",74%
same,inhibition in vivo at 3 mg/kg,[14],59%
same,inhibition in vivo at 3 mg/kg,[15],18%
same,inhibition in vivo at 10 mg/kg,"5 h, 10 mg/kg I.V., AII 0.05 mcg/kg IV, 300 min post dose",70%
same,inhibition in vivo at 10 mg/kg,"5 h, 10 mg/kg I.V., AII 0.1 mcg/kg IV, 300 min post dose",54%
same,inhibition in vivo at 3 mg/kg,[16],73%
same,inhibition in vivo at 10 mg/kg,"[…], 10 mg/kg I.V., AII 0.05 mcg/kg IV, 90 min post dose",66%
same,inhibition in vivo at 10 mg/kg,"[…], 10 mg/kg I.V., AII 0.1 mcg/kg IV, 90 min post dose",69%
"CCCCc1nc2ccc([C@@]3(C)C[C@@H]4CCCCN4O3)cc2c(=O)n1Cc1ccc(-c2ccccc2-c2nnn[nH]2)cc1 (relative stereo) [Example 67, Cis-2-Butyl-6-(hexahydro-2-methyl-2H-isoxazolo[2,3-a]pyridin-2-yl)-3-[[2'-(1H-tetrazol-5-yl)[1,1'-biphenyl]-4-yl]methyl]-4(3H)-quinazolinone]",Response Average Change,"3 mg/kg I.V., AII 0.05 mcg/kg IV, 30 min post dose",20 mmHg
same,Response Average Change,"3 mg/kg I.V., AII 0.05 mcg/kg IV, 60 min post dose",7.5 mmHg
same,Response Average Change,"3 mg/kg I.V., AII 0.05 mcg/kg IV, 90 min post dose",7.5 mmHg
same,Response Average Change,"3 mg/kg I.V., AII 0.05 mcg/kg IV, 120 min post dose",12.5 mmHg
same,Response Average Change,"3 mg/kg I.V., AII 0.05 mcg/kg IV, 180 min post dose",15 mmHg
same,Response Average Change,[1],7.5 mmHg
same,Response Average Change,[2],14 mmHg
same,Response Average Change,"3 mg/kg I.V., AII 0.1 mcg/kg IV, 30 min post dose",14 mmHg
same,Response Average Change,"3 mg/kg I.V., AII 0.1 mcg/kg IV, 60 min post dose",15 mmHg
same,Response Average Change,"3 mg/kg I.V., AII 0.1 mcg/kg IV, 90 min post dose",12.5 mmHg
same,Response Average Change,"3 mg/kg I.V., AII 0.1 mcg/kg IV, 120 min post dose",10 mmHg
same,Response Average Change,"3 mg/kg I.V., AII 0.1 mcg/kg IV, 180 min post dose",11.5 mmHg
same,Response Average Change,[3],11 mmHg
same,Response Average Change,[4],17.5 mmHg
same,inhibition in vivo at 3 mg/kg,[5],61%
same,inhibition in vivo at 3 mg/kg,[6],77%
same,inhibition in vivo at 3 mg/kg,[7],85%
same,inhibition in vivo at 3 mg/kg,[8],75%
same,inhibition in vivo at 3 mg/kg,[9],76%
same,inhibition in vivo at 3 mg/kg,[10],83%
same,inhibition in vivo at 3 mg/kg,"3 h, 3 mg/kg I.V., AII 0.05 mcg/kg IV, 180 min post dose",71%
same,inhibition in vivo at 3 mg/kg,[11],81%
same,inhibition in vivo at 3 mg/kg,[12],85%
same,inhibition in vivo at 3 mg/kg,[13],82%
same,inhibition in vivo at 3 mg/kg,[14],73%
same,inhibition in vivo at 3 mg/kg,[15],71%
same,inhibition in vivo at 3 mg/kg,[16],85%
same,inhibition in vivo at 3 mg/kg,"[…], 3 mg/kg I.V., AII 0.1 mcg/kg IV, 90 min post dose",79%
